Counter-ions that a name gives are not always drawn. Like-named read-outs stand apart in the source and are kept apart here. One block for each molecule: values may come before it.
Tests used:
[1] = Impact of human serum protein binding on inhibitory activity; format: cell-based; conditions: Figure S4
[2] = biological target: human IDO1 expressed endogenously in HeLa cells (Homo sapiens, UniProt P14902); experiment: Cell-based IDO1 inhibition assay
[3] = biological target: T1, mouse IDO2 expressed exogenously in T-Rex cells (Mus musculus, UniProt Q8R0V5); experiment: Cell-based IDO2 inhibition assay; conditions: for Greater potency for IDO1 and TDO over IDO2 (cell-based): cell-based IC50 ratio
T1 sequence (Q8R0V5 1-405): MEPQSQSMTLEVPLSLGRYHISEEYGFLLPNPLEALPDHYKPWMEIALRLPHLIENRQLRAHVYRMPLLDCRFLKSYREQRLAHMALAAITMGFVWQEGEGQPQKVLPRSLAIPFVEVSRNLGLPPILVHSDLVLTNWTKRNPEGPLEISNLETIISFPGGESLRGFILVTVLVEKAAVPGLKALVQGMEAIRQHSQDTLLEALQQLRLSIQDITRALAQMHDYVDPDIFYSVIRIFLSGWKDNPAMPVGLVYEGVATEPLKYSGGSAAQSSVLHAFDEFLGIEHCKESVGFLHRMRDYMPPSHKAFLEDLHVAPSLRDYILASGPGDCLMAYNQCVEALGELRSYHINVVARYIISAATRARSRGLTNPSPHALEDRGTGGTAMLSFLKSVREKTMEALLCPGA

IDO1 = IDO1 (Homo sapiens, UniProt P14902); experiment: Enzyme-based IDO1 inhibition assay; conditions: for IDO1 % inhibition: isolated enzyme, 100 μM inhibitor
Chain of IDO1 (P14902 whole entry, species assumed): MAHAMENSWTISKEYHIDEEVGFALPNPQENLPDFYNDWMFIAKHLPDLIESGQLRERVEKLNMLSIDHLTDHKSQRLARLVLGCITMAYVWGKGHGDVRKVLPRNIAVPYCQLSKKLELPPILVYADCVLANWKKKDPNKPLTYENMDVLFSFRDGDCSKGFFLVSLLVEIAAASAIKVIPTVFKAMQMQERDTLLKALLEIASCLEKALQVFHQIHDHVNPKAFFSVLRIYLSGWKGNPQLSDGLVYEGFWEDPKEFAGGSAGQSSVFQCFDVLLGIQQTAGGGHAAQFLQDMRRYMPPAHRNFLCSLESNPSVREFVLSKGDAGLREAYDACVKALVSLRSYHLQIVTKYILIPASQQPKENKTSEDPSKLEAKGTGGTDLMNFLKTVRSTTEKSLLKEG

IDO2 = IDO2 (Homo sapiens, UniProt Q6ZQW0); experiment: Enzyme-based IDO2 inhibition assay
Chain of IDO2 (Q6ZQW0 whole entry): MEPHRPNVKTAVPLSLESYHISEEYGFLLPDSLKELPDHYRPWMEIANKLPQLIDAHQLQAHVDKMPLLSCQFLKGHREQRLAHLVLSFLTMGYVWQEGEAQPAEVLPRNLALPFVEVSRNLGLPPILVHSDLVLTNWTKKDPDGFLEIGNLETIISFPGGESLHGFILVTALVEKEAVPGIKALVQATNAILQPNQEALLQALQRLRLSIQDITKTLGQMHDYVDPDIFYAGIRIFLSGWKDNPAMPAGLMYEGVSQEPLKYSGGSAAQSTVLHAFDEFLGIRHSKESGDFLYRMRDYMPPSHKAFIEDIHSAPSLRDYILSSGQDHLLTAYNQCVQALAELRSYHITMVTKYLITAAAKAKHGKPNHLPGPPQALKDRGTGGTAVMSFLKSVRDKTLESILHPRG

TDO = TDO (Homo sapiens, UniProt P48775); experiment: Enzyme-based TDO inhibition assay
Chain of TDO (P48775 whole entry, species assumed): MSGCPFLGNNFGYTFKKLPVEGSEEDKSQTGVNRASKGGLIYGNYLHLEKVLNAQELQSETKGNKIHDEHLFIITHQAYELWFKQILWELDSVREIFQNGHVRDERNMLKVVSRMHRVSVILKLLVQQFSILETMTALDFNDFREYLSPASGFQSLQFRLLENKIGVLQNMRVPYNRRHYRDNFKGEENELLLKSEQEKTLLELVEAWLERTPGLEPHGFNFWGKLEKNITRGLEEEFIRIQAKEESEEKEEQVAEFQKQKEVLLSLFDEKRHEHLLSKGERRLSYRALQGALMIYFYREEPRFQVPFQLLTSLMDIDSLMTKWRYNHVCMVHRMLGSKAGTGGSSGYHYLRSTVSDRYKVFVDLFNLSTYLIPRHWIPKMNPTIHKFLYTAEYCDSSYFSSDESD

[4] = biological target: human TDO expressed exogenously in T-Rex cells (Homo sapiens, UniProt P48775); experiment: Cell-based TDO inhibition assay
Chain of human TDO expressed exogenously in T-Rex cells (P48775 whole entry): as the sequence (P48775 whole entry, species assumed) above

[5] = isolated enzyme, 100 μM inhibitor
[6] = read-out: TDO IC50 (cell-based), human TDO in T-Rex cells, racemic mixtures
[7] = read-out: IDO2 IC50 (cell-based), mouse IDO2 in T-Rex cells, racemic mixtures
[8] = read-out: IDO1 IC50 (cell-based), HeLa cells, racemic mixtures

Chain of human IDO1 expressed endogenously in HeLa cells (P14902 whole entry): as the sequence (P14902 whole entry, species assumed) above

- Effect of human serum protein binding on inhibitory activity [1]: relatively unaffected
Molecule: Cl.NOC(c1ccccc1)c1cc(Cl)cc(Cl)c1 (stereo not drawn) [Compound 2, O-(3,5-Dichloro-α-phenylbenzyl)hydroxylamine hydrochloride]

- Selectivity for IDO1 over IDO2 and TDO (cell-based) ([2]; cell-based IC50 ratio): more than 20 fold
Molecule: Cl.NOC(CCCC(=O)Nc1ccccc1)c1cccc(Cl)c1 (centres unmarked) [Compound 5, 5-(Aminooxy)-5-(3-chlorophenyl)-N-phenylpentanamide hydrochlorie]

Molecule: Cl.NOC(c1ccccc1)c1ccc(Cl)cc1Cl (centres unmarked) [Compound 6, O-(2,4-Dichlorophenylbenzyl)hydroxylamine hydrochloride]
- Effect of human serum protein binding on inhibitory activity [1]: substantial reduction in inhibitory activity

- Greater potency for IDO1 and TDO over IDO2 (cell-based) [3]: roughly 10 fold
Molecule: Cl.NOC(c1ccccc1)c1ccccc1F (stereo not drawn) [Compound 16, O-(2-Fluoro-α-phenylbenzyl)hydroxylamine hydrochloride]

Molecule: NOC(CCc1ccccc1)c1ccccc1 (centres unmarked) [Compound 17, O-(1,3-diphenylpropyl)hydroxylamine hydrochloride]
- IC50 (IDO1): 16 µM
- inhibition at 100 µM (IDO2; read-out: IDO2 % inhibition): 76%
- inhibition at 100 µM (TDO; read-out: TDO % inhibition): 89.9%
- IC50 [4]: 49.7 µM
- IC50 [3]: 19.3 µM
- IC50 [2]: 14.7 µM

- Greater potency for IDO1 and TDO over IDO2 (cell-based) [3]: roughly 10 fold
Molecule: Cl.NOC(c1ccccc1)c1ccsc1 (centres unmarked) [Compound 21, O-(phenyl(thiophen-3-yl)methyl)hydroxylamine hydrochloride]

- inhibition at 200 µM (IDO1; read-out: IDO1 % inhibition, isolated enzyme, 200 μM inhibitor): 18%
Molecule: NOC(c1ccccc1)c1ccc(O)cc1 (stereo not drawn) [Compound 25, O-(4-Hydroxy-α-phenyl)-benzyl hydroxylamine hydrochloride]

Molecule: O-(2-Methoxy-α-phenylbenzyl)hydroxylamine hydrochloride [Compound 20]
- IDO2 % inhibition (IDO2; [5]): 80.0%
- IC50 [4, 6]: 48.8 µM
- IC50 [3, 7]: 16.5 µM
- IC50 [2, 8]: 1.11 µM

Molecule: O-(3-Trifluoromethyl-α-phenylbenzyl)hydroxylamine hydrochloride [Compound 26]
- IDO1 % inhibition (IDO1): 18%
- IC50 (TDO; read-out: TDO IC50, isolated enzyme, racemic mixtures): 12 µM
- IC50 [4, 6]: 13.6 µM
- IC50 [3, 7]: 24.7 µM
- IC50 [2, 8]: 1.73 µM

Molecule: O-[4-Chloro-α-(2’-methyl,4’-methoxyphenyl)benzenemethyl]hydroxylamine hydrochloride [Compound 23]
- IDO1 % inhibition (IDO1): 85%
- TDO % inhibition (TDO; [5]): 66%
- IC50 [4, 6]: 19.1 µM
- IC50 [3, 7]: 8.77 µM
- IC50 [2, 8]: 1.76 µM
